Reference: patent US20090124608A1, “CB2 Receptor Modulators In Neurodegenerative Diseases And Applications Of The Same” (priority 2006, published 2009)

Assays:
cannabinoid receptors = assay: GTPγS binding in end stage spinal cord homogenates from G93A-SOD1 mice, separated by gender; format: biochemical, mouse; settings: for 2-AG stimulated G-protein activation remaining on co-incubation with CB2 ligand / HU-210 stimulated G-protein activation remaining on co-incubation with CB2 ligand: ligand 1 μM
Method: [^35S]GTPγS binding assays were performed as described previously (Prather et al. 2000a) in a buffer containing 20 mM Hepes, 100 mM NaCl, and 10 mM MgCl2 at pH 7.4. Each binding reaction contained 10 μg of spinal cord membrane protein, the presence or absence of cannabinoid ligands (see following), plus 0.1 nM [^35S]GTPγS (1250 Ci/mmol, Perkin Elmer Life and Analytical Sciences) and […] of GDP to suppress basal G-protein activation. Reactions were incubated for 2 hrs at 30 °C. Non-specific binding was defined by binding observed in the presence of 10 μM of non-radioactive GTPγS. The reaction was terminated by rapid vacuum filtration through glass fiber filters followed by two washes with ice-cold assay buffer. 4 mL of scintiverse® (Fisher Scientific) was added to the filters and radioactivity quantified by scintillation counting.
Harvested spinal cords from the vehicle treated control groups at the end-stage of their disease were separated by gender and used to conduct GTP7S binding experiments, which measure the capability of a ligand to promote or suppress G-protein activation.
It was next determined if the selective CB2 ligands antagonize G-protein activation produced by an endocannabinoid such as 2-AG as well.

CB1 receptors = settings: cited from earlier work; for Ki: literature value, read-out: Ki at CB1 receptors
CB2 receptors = CB2 receptors (Homo sapiens, UniProt P34972); settings: cited from earlier work
CB2 receptors, sequence (P34972 whole entry): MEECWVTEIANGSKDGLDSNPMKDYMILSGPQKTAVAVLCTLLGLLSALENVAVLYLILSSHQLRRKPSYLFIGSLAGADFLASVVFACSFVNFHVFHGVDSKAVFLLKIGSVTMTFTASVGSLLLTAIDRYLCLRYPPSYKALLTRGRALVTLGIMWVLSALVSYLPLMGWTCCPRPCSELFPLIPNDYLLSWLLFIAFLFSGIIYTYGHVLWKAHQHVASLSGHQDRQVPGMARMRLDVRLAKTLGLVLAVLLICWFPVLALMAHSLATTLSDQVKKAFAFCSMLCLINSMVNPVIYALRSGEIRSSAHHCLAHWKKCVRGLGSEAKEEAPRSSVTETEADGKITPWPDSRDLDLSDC

G93A-SOD1 mice [1] = assay: Motor function test (clinging to perpendicular wire mesh screen for 60 seconds) in G93A mice; format: in vivo, mouse; settings: for improvement in motor function versus vehicle, females: female G93A mice; for improvement in motor function versus vehicle, females / improvement in motor function versus vehicle, males: time to loss of ability to cling 60 seconds; for interval between mean loss of motor function and death, females: female mice, vehicle 19.0 days; for improvement in motor function versus vehicle, males: male G93A mice; for interval between mean loss of motor function and death, males: male mice, vehicle 20.5 days
Method: Beginning on the first day of observing symptoms, mice were tested for motor function biweekly until sacrifice. Motor function testing was initiated by gently placing animals on a horizontal wire mesh screen. The screen was slowly rotated to be perpendicular to the ground (90°). The duration that mice were able to hang onto the perpendicular wire mesh up to a maximum of 120 seconds was recorded. Because vehicle treated mice on average lost the ability to cling to the wire mesh for 60 seconds in the middle of their survival curve, this “all or none” response was utilized to compare motor function across all treatment groups. Kaplan-Meier time-to-event statistics were employed to analyze the data. The event was defined as the number of days after symptom onset that each individual animal was no longer able to cling to the wire mesh screen for 60 seconds.
Testing twice a week for the duration of the study provided a quantifiable decline during disease progression. Mice were placed on a horizontal wire mesh screen that was gently inverted to 90°. Kaplan-Meier time-to-event curves were used to analyze the data. The event was defined as the day each animal was no longer able to cling to the perpendicular screen for 60 seconds. […] The disparity between male and female motor function was paralleled by the interval between survival for the genders. Male mice survived an average of 39.6±2.0 (FIG. 6a) days past the onset of symptoms, while females lived 9 days longer than males (p<0.0018*, FIG. 6b). For males and females, loss of motor function preceded death by 20.5 (p<0.0002***) and 19.0 days (p<0.0028**), respectively.

[2] = Water solubility and dissolution in vehicles; settings: for stable dissolution in tested vehicles: ethanol/water, glycerol, polyethylene glycol, high purity olive oil tested
G93A-SOD1 mice [3] = assay: Survival of G93A mice, daily i.p. treatment initiated at symptom onset; format: in vivo, mouse; settings: for survival improvement versus vehicle, females: female G93A mice; for survival improvement versus vehicle, females / survival improvement versus vehicle, males: 3 mg/kg for AM-1241 and AM630, JTE-907 dose not given; for survival improvement versus vehicle, males: male G93A mice
Excerpt: Hemizygous transgenic male mice with the G93A mutation of the human SOD1 gene (G1H/1) mutation (B6SJL-TgN (SOD1-G93A) 1 Gur) were obtained from Jackson Laboratories and were bred locally with female B6SJL mice (Jackson Laboratory), according to the protocol obtained from the vendor. To decrease the inherent variability in disease onset and survival with these mice, littermate transgenic males (rather than random males from several different litters) were selected to sire subsequent generations of mice.
Determination of symptom onset, randomization and drug treatment of G93A mice. Symptom onset was assessed by blinded observation of changes in hind limb gait; these changes are related to the mouse's inability to support its weight on its hind limbs. At onset, mice initially place their weight on the toes and then quickly fall to full foot placement (as opposed to healthy mice which walk and run on the hind toes); this “toe-to-heel” walking pattern produces an asymmetric gait between hind and fore limbs and a characteristic “wobbling” gait. Mouse groups were randomized based on symptom onset and alternately placed in control and treated groups, e.g., the first mouse to develop hind limb weakness was placed in the control group, the second was injected with test compound and placed in the treatment group, and so on. […] By definition, the onset administration paradigm employed was focused on what we term the “survival interval”—namely the time from onset to end-stage sacrifice.
Mice were sacrificed when any of the following criteria were met: (1) inability to right themselves within 30 seconds when placed on their sides; (2) inability to eat or drink, or move toward food and water placed in low-rimmed dishes on cage floor; (3) loss of more than 10% of total body weight in 24 hours; (4) gross loss of grooming behavior; or (5) labored breathing. Criteria for death were confirmed by a second investigator who is blinded to the group identity of each mouse. The age of symptom onset was subtracted from the age at death for each mouse, and a mean survival interval was calculated for each group. By calculating the ratio of the survival interval of treated groups to the survival interval of untreated littermate controls, a X-fold increase in survival was readily determined.
The effect of chronic administration of cannabinoids on the survival of G93A mice was next examined (FIG. 4). […] The number of days between symptom onset and animal sacrifice was measured (e.g., survival interval). In humans, this is analogous to the time between diagnosis of ALS and death, ranging from 2-5 years.

CB1/CB2 receptors [4] = assay: [35S]GTPγS binding, selective antagonism of HU-210, WT-OE spinal cord membranes; format: biochemical, mouse
CB1/CB2 receptors [5] = assay: [35S]GTPγS binding, selective antagonism of HU-210, G93A spinal cord membranes; format: biochemical, mouse
[6] = female homogenates, HU-210 100 nM
[7] = male homogenates, HU-210 100 nM
[8] = G93A mice, i.p. daily from onset, 3.0 mg/kg
[9] = daily injections initiated at symptom onset
[10] = WT-OE spinal cord membranes, HU-210 100 nM, antagonist 3 μM

## CCCCCC=CCC=CCC=CCC=CCCCC(=O)OC(CO)CO [2-AG, (5Z,8Z,11Z, 14Z)-5,8,11,14-Eicosatetraenoic acid, 2-hydroxy-1-(hydroxymethyl) ethyl ester]
Cannabinoid receptors; female spinal cord homogenate, 2-AG 3 μM
  [35S]GTPγS binding to G-proteins produced by agonist: 29.93±3.3 fmole/mg protein
Cannabinoid receptors; female transgenic spinal cord
  Emax of G-protein activation: 17.81±1.89
Cannabinoid receptors; male spinal cord homogenate, 2-AG 3 μM
  [35S]GTPγS binding to G-proteins produced by agonist: 31.30±1.7 fmole/mg protein
Cannabinoid receptors; male transgenic spinal cord
  Emax of G-protein activation: 23.21±5.82

## Cc1c(C(=O)NN2CCCCC2)nn(-c2ccc(Cl)cc2Cl)c1-c1ccc(I)cc1 [AM-251, N-(Piperidin-1-yl)-5-(4-iodophenyl)-1-(2,4-dichlorophenyl)-4-methyl-1H-pyrazole-3-carboxamide]
CB1 receptors
  Ki: ~7 nM
CB2 receptors; Gatley et al. 1997
  affinity at CB2 receptors weaker than at CB1: over 300 fold

## COc1ccc(C(=O)c2c(C)n(CCN3CCOCC3)c3cc(I)ccc23)cc1 [AM-630]
Cannabinoid receptors; female homogenate, 2-AG 3 μM
  2-AG stimulated G-protein activation remaining on co-incubation with CB2 ligand: 8.49±3.7 fmole/mg protein
Cannabinoid receptors; [6]
  HU-210 stimulated G-protein activation remaining on co-incubation with CB2 ligand: 17.76±3.3 fmole/mg protein
Cannabinoid receptors; male homogenate, 2-AG 3 μM
  2-AG stimulated G-protein activation remaining on co-incubation with CB2 ligand: 6.66±3.9 fmole/mg protein
Cannabinoid receptors; [7]
  HU-210 stimulated G-protein activation remaining on co-incubation with CB2 ligand: 21.02±5.6 fmole/mg protein
G93A-SOD1 mice [1]
  improvement in motor function versus vehicle, females: 48%
  interval between mean loss of motor function and death, females: 8.7 days
  improvement in motor function versus vehicle, males: 64%
  interval between mean loss of motor function and death, males: 18.9 days
CB1 receptors; Hosohata et al. 1997
  affinity for CB1 receptors less than for CB2: more than 165 fold
[2]
  water solubility: very poor water solubility
  stable dissolution in tested vehicles: achieved only with olive oil
CB2 receptors; literature value, read-out: Ki at CB2 receptors
  Ki: ~20 nM
G93A-SOD1 mice [3]; [8]
  Survival Interval Ratio (SIR): 2.30
  Total Life-Span Ratio (TLR): 1.27
G93A-SOD1 mice [3]; G93A-SOD1 mice
  survival compared with AM-1241 treated mice: survived twice as long as those mice treated with AM-1241
G93A-SOD1 mice [3]; [9]
  extension of total life-span versus controls: 27%
  living longer after symptom onset than controls (survival interval increase): 130%
G93A-SOD1 mice [3]
  survival improvement versus vehicle, females: 8%
  survival improvement versus vehicle, males: 27%
G93A-SOD1 mice [3]; treatment initiated at symptom onset
  effect on survival of G93A-SOD1 mice: pronounced increase in survival

## CCCCCCC(C)(C)c1cc(O)c2c(c1)OC(C)(C)[C@@H]1CC=C(CO)C[C@@H]21 [HU-210, (−)-11-Hydroxy-delta(8)-tetrahydrocannabinol-dimethylheptyl]
Cannabinoid receptors; female spinal cord homogenates, HU-210 100 nM
  [35S]GTPγS binding to G-proteins produced by agonist: 40.59±8.5 fmole/mg protein
Cannabinoid receptors; male spinal cord homogenates, HU-210 100 nM
  [35S]GTPγS binding to G-proteins produced by agonist: 35.51±5.6 fmole/mg protein
CB1/CB2 receptors [4]; WT-OE spinal cord membranes, HU-210 100 nM
  [35S]GTPγS binding to G-proteins produced by agonist: 30.7±6.2 fmole/mg protein
CB1 receptors
  Ki: ~0.5 nM
CB1/CB2 receptors [5]; G93A spinal cord membranes, HU-210 100 nM
  [35S]GTPγS binding to G-proteins produced by agonist: 57.4±4.4 fmole/mg protein

## CCCCCOc1c(OC)ccc2cc(C(=O)NCc3ccc4c(c3)OCO4)c(=O)[nH]c12 [JTE-907]
Cannabinoid receptors; female homogenate
  reduction of HU-210 induced G-protein activation (CB2 receptor antagonism): 31.34 fmole/mg protein
Cannabinoid receptors; female homogenate, 2-AG 3 μM
  2-AG stimulated G-protein activation remaining on co-incubation with CB2 ligand: 5.96±0.97 fmole/mg protein
Cannabinoid receptors; [6]
  HU-210 stimulated G-protein activation remaining on co-incubation with CB2 ligand: 9.25±1.2 fmole/mg protein
Cannabinoid receptors; male homogenate
  reduction of HU-210 induced G-protein activation (CB2 receptor antagonism): 12.31 fmole/mg protein
Cannabinoid receptors; male homogenate, 2-AG 3 μM
  2-AG stimulated G-protein activation remaining on co-incubation with CB2 ligand: 18.14±2.1 fmole/mg protein
Cannabinoid receptors; [7]
  HU-210 stimulated G-protein activation remaining on co-incubation with CB2 ligand: 23.3 fmole/mg protein
G93A-SOD1 mice [1]
  improvement in motor function versus vehicle, females: 92%
  interval between mean loss of motor function and death, females: 4 days
  improvement in motor function versus vehicle, males: 61%
  interval between mean loss of motor function and death, males: 10.7 days
[2]
  water solubility: very poor water solubility
  stable dissolution in tested vehicles: achieved only with olive oil
G93A-SOD1 mice [3]
  survival improvement versus vehicle, females: 25%
  survival improvement versus vehicle, males: did not live significantly longer

## Cc1c(C(=O)c2cccc3ccccc23)c2cccc3c2n1C(CN1CCOCC1)CO3 (centres unmarked) [WIN-55,212-2, [2,3-Dihydro-5-methyl-3-[(morpholinyl)methyl]pyrrolo-[1,2,3-de]-1,4-benzoxazin-yl]-(1-naphthalenyl)methanone]
[2]
  water solubility: very poor water solubility
  stable dissolution in tested vehicles: achieved only with olive oil
G93A-SOD1 mice [3]; 5 mg/kg daily i.p.
  increase in survival interval versus vehicle: 8.8 days
G93A-SOD1 mice [3]; 5 mg/kg daily i.p., vehicle 23.7+/−1.7 days
  survival interval (symptom onset to sacrifice): 32.5 ± 3.6 days

## (−)-cis-3-[2-Hydroxy-4-(1,1-dimethylheptyl)-phenyl]-trans-4-(3-hydroxypropyl)-cyclohexanol) [CP-55,940]
CB1 receptors
  Ki: ~0.5 nM

## N-[(1S)-endo-1,3,3-Trimethylbicyclo[2.2.1]heptan-2-yl]-5-(4-chloro-3-methylphenyl)-1-(4-ethoxybenzyl)-pyrazole-3-carboxamide [SR-144528]
CB1/CB2 receptors [4]; WT-OE membranes, antagonist 3 μM
  net reduction of HU-210-induced G-protein activation: 15.6 fmoles/mg protein
CB1/CB2 receptors [4]; [10]
  % blockade of HU-210-induced G-protein activation: approximately 50%
  HU-210 stimulated [35S]GTPγS binding remaining on co-incubation with antagonist: 15.1±1.1 fmole/mg protein
CB1/CB2 receptors [5]
  % blockade of HU-210-induced G-protein activation: 49%
  HU-210 stimulated [35S]GTPγS binding remaining on co-incubation with antagonist: 29.5±6.4 fmole/mg protein
  net reduction of HU-210-induced G-protein activation: 27.9 fmole/mg protein
